The test system of the first assay is Trichoplusia ni. The experiment in a line: Protection of intact cabbage plants from Trichoplusia ni (cabbage looper) measured as reduction in weight of larvae by lopper in green house for 10 days (reference value: 33.8 mg). In kind it is functional.
On to `O=C1C=CC(=O)c2c(O)cccc21` [JUGLONE], for which the Activity came out at 8.1 mg.
Still for that read-out and setting: the figure for `CC1=CC(=O)c2c(O)cccc2C1=O` [PLUMBAGIN] is 12.7 mg.

The subject of the next assay is Trichoplusia ni. The experiment in a line: Protection of intact cabbage plants from Trichoplusia ni (cabbage looper) measured as leaf area consumed by lopper in green house for 10 days (reference value: 8.5 cm'2). In kind it is functional.
On to `O=C1C=CC(=O)c2c(O)cccc21` [JUGLONE], for which the Activity amounted to 1.7 cm2.
Consider `CC1=CC(=O)c2c(O)cccc2C1=O` [PLUMBAGIN], for which the Activity was determined as 3.5 cm2.

For a further assay, the system named is Trichoplusia ni. The experiment in a line: Antifeedant activity against Trichoplusia ni (cabbage looper) third-instar larvae stage assessed as concentrations causing 50% feeding deterrence by feeding deterrent bioassay. It counts as functional, organism-based.
As for `O=C1C=Cc2ccccc2C1=O` [1,2-NAPHTHOQUINONE], the DC50 was determined as 1.8 microg/cm2.
For the molecule `c1ccc2c(c1)ccc1cccnc12` [1-NAPHTHOQUINOLINE], the DC50 is 16.4 microg/cm2.
In the case of `O=C1C(Br)=C(Br)C(=O)c2ccccc21` [2,3-Dibromo-1,4-naphthoquinone], the DC50 came out at 26.4 microg/cm2.
Regarding `O=C1C=C(Br)C(=O)c2ccccc21` [2-Bromo-1,4-naphthoquinone], the DC50 turned out to be 8.4 microg/cm2.
Turning to `O=C1C(Cl)=C(N2CCOCC2)C(=O)c2ccccc21` [2-Chloro-3-morpholino-1,4-naphthoquinone], the DC50 stood at 9.7 microg/cm2.
For the molecule `COC1=CC(=O)c2ccccc2C1=O` [2-Methoxy-1,4-naphthoquinone], the DC50 was 2.6 microg/cm2.
As to `O=C1c2cccc(O)c2C(=O)c2c(O)cccc21` [DANTHRON], the DC50 amounted to 9.2 microg/cm2.
Still for that read-out and setting: for `O=C1C=CC(=O)c2c(O)cccc21` [JUGLONE] the value was 2.1 microg/cm2; for `CC1=CC(=O)c2ccccc2C1=O` [MENADIONE], 6.3 microg/cm2; for `O=C1C=CC(=O)c2c(O)ccc(O)c21` [NAPHTHAZALIN], 10.1 microg/cm2.
Consider `CC1=CC(=O)c2c(O)cccc2C1=O` [PLUMBAGIN], for which the DC50 is given as 3.3 microg/cm2.
Turning to `CC1=CC(=O)C(C(C)C)=CC1=O` [THYMOQUINONE], the DC50 is recorded as 19.3 microg/cm2.
With `COC1=C(OC)C(=O)C(C)=CC1=O` [Ubiquinone Qo], the DC50 was 4.2 microg/cm2.

Another assay has as its system Trichoplusia ni. The experiment in a line: Antifeedant activity against Trichoplusia ni (cabbage looper) third-instar larvae stage assessed as feeding deterrence index at 50 microg/cm'2 by feeding deterrent bioassay. In kind it is functional.
Regarding `O=C1C=Cc2ccccc2C1=O` [1,2-NAPHTHOQUINONE], the FDI stood at 100%.
In the case of `O=C1c2ccccc2C(=O)c2c(O)cccc21` [1-HYDROXYANTHRAQUINONE], the FDI is listed as -41.5%.
Still for that read-out and setting: the figure for `c1ccc2c(c1)ccc1cccnc12` [1-NAPHTHOQUINOLINE] is 75.7%; for `O=C1C(Br)=C(Br)C(=O)c2ccccc21` [2,3-Dibromo-1,4-naphthoquinone] it is 100%.
With `O=C1C=C(Br)C(=O)c2ccccc21` [2-Bromo-1,4-naphthoquinone], the FDI is listed as 80.7%.
As to `O=C1C(Cl)=C(N2CCOCC2)C(=O)c2ccccc21` [2-Chloro-3-morpholino-1,4-naphthoquinone], the FDI amounted to 100%.
`COC1=CC(=O)c2ccccc2C1=O` [2-Methoxy-1,4-naphthoquinone]: the FDI amounted to 96.8%.
On to `O=C1C(=O)c2ccccc2-c2ccccc21` [9,10-PHENANTHRENEQUINONE], for which the FDI is reported as -15.4%.
Turning to `O=C1c2cccc(O)c2C(=O)c2cccc(O)c21` [ANTHRARUFIN], the FDI is -58.6%.
For `O=C1C=CC(=O)C=C1` [BENZOQUINONE], the FDI was found to be 17.8%.
Same read-out and setting: the figure for `O=C1C(Cl)=C(Cl)C(=O)C(Cl)=C1Cl` [CHLORANIL] is 35.8%; for `O=C1c2cccc(O)c2C(=O)c2c(O)cccc21` [DANTHRON] it is 86.2%; for `CC1=C(Br)C(=O)C(C(C)C)=C(Br)C1=O` [Dibromothymoquinone] it is 42.2%.
On to `O=C1C(Cl)=C(Cl)C(=O)c2ccccc21` [Dichlon], for which the FDI is 39.8%.
Consider `Cc1cc(O)c2c(c1)C(=O)c1cc(O)cc(O)c1C2=O` [EMODIN], for which the FDI was 22.1%.
Consider `O=C1C=CC(=O)c2c(O)cccc21` [JUGLONE], for which the FDI came out at 100%.
As for `CC(C)=CCC1=C(O)C(=O)c2ccccc2C1=O` [LAPACHOL], the FDI is recorded as 9.1%.
For the molecule `CC1=CC(=O)c2ccccc2C1=O` [MENADIONE], the FDI is listed as 100%.
Same read-out and setting: the figure for `O=C1C=CC(=O)c2c(O)ccc(O)c21` [NAPHTHAZALIN] is 100%.
Turning to `CC1=CC(=O)c2c(O)cccc2C1=O` [PLUMBAGIN], the FDI amounted to 100%.
For the molecule `CC1=CC(=O)C(C(C)C)=CC1=O` [THYMOQUINONE], the FDI worked out at 100%.
In the case of `COC1=C(OC)C(=O)C(C)=CC1=O` [Ubiquinone Qo], the FDI is 86.7%.

The subject of a further assay is Trichoplusia ni. Nature of the assay: Toxicity against Trichoplusia ni (cabbage looper) third-instar larvae stage assessed as mortality at 10 ug/ml for 24 hr by topical application. It counts as functional.
One may read the mortality as the percentage killed. With `O=C1C=Cc2ccccc2C1=O` [1,2-NAPHTHOQUINONE], the mortality at 10 µg/mL amounted to 3.3%.
With `O=C1c2ccccc2C(=O)c2c(O)cccc21` [1-HYDROXYANTHRAQUINONE], the mortality at 10 µg/mL amounted to 10%.
Same read-out and setting: the figure for `c1ccc2c(c1)ccc1cccnc12` [1-NAPHTHOQUINOLINE] is 10%; for `O=C1C(Br)=C(Br)C(=O)c2ccccc21` [2,3-Dibromo-1,4-naphthoquinone] it is 10%.
As to `O=C1C=C(Br)C(=O)c2ccccc21` [2-Bromo-1,4-naphthoquinone], the mortality at 10 µg/mL turned out to be 15%.
The same measure, in the same setting: for `O=C1C(Cl)=C(N2CCOCC2)C(=O)c2ccccc21` [2-Chloro-3-morpholino-1,4-naphthoquinone] the value was 12%.
For `COC1=CC(=O)c2ccccc2C1=O` [2-Methoxy-1,4-naphthoquinone], the mortality at 10 µg/mL was found to be 8%.
`O=C1C(=O)c2ccccc2-c2ccccc21` [9,10-PHENANTHRENEQUINONE]: the mortality at 10 µg/mL stood at 10%.
As for `O=C1c2cccc(O)c2C(=O)c2cccc(O)c21` [ANTHRARUFIN], the mortality at 10 µg/mL was found to be 15%.
The same measure, in the same setting: the figure for `O=C1C(Cl)=C(Cl)C(=O)C(Cl)=C1Cl` [CHLORANIL] is 10%.
On the same count and under the same terms, for `O=C1c2cccc(O)c2C(=O)c2c(O)cccc21` [DANTHRON] the value was 12%; for `CC1=C(Br)C(=O)C(C(C)C)=C(Br)C1=O` [Dibromothymoquinone], 5%; for `O=C1C(Cl)=C(Cl)C(=O)c2ccccc21` [Dichlon], 8%.
For the molecule `Cc1cc(O)c2c(c1)C(=O)c1cc(O)cc(O)c1C2=O` [EMODIN], the mortality at 10 µg/mL worked out at 10%.
On the same count and under the same terms, for `O=C1C=CC(=O)c2c(O)cccc21` [JUGLONE] the value was 5%; for `CC(C)=CCC1=C(O)C(=O)c2ccccc2C1=O` [LAPACHOL], 10%.
The same measure, in the same setting: for `CC1=CC(=O)c2ccccc2C1=O` [MENADIONE] the value was 13%; for `O=C1C=CC(=O)c2c(O)ccc(O)c21` [NAPHTHAZALIN], 20%.
Take `CC1=CC(=O)c2c(O)cccc2C1=O` [PLUMBAGIN]: the mortality at 10 µg/mL is 7%.
For the molecule `CC1=CC(=O)C(C(C)C)=CC1=O` [THYMOQUINONE], the mortality at 10 µg/mL is 26.7%.
For the molecule `COC1=C(OC)C(=O)C(C)=CC1=O` [Ubiquinone Qo], the mortality at 10 µg/mL was 23.3%.

These data come from ChEMBL document CHEMBL3045949, “Antifeedant and toxic effects of naturally occurring and synthetic quinones to the cabbage looper, Trichoplusia ni” (Crop Prot, 2012).
